This is an account of results in patent US12643910B2, “Substituted pyrazolo[3,4-b]pyridines as ectonucleotide pyrophosphatase/phosphodiesterase 1 (ENPP1) modulators” (SANFORD BURNHAM PREBYS MEDICAL DISCOVERY INSTITUTE, priority 2019, dated 2026).

Bounds are passed on as bounds.

Usually IC50 stands for the concentration at which inhibition is half-maximal.

Assay [1] has as its target T1, ENPP3 (Homo sapiens, UniProt O14638).
T1 sequence (O14638 1-875): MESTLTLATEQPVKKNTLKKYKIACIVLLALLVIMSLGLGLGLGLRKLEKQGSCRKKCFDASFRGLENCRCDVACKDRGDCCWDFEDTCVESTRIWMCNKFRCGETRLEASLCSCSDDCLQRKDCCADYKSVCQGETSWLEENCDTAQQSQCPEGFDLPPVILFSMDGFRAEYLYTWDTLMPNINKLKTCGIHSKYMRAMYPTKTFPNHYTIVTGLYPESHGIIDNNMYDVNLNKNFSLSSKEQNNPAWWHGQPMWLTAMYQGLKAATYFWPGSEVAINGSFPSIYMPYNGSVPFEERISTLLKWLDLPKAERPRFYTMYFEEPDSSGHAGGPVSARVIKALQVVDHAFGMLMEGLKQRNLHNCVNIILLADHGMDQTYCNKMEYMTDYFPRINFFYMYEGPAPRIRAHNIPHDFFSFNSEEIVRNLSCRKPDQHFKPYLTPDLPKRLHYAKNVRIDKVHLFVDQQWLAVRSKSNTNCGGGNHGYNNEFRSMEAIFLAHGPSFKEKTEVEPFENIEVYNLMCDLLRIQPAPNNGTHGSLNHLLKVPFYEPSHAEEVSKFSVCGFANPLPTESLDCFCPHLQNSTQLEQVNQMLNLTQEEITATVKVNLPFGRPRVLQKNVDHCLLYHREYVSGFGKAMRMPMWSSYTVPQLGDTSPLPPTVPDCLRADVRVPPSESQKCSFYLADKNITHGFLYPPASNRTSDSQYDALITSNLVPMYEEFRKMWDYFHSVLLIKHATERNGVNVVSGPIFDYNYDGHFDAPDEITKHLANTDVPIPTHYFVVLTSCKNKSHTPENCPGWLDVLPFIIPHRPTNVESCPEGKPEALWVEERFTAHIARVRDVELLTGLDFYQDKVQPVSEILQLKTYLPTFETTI
Kind of assay: ENPP3 Km ATP assay. The settings on record: ATP at Km. The class given is biochemical.

Assay [2] has as its target T2, human ENPP1 (Homo sapiens, UniProt P22413).
T2 construct: made in house
T2 sequence (P22413 1-925): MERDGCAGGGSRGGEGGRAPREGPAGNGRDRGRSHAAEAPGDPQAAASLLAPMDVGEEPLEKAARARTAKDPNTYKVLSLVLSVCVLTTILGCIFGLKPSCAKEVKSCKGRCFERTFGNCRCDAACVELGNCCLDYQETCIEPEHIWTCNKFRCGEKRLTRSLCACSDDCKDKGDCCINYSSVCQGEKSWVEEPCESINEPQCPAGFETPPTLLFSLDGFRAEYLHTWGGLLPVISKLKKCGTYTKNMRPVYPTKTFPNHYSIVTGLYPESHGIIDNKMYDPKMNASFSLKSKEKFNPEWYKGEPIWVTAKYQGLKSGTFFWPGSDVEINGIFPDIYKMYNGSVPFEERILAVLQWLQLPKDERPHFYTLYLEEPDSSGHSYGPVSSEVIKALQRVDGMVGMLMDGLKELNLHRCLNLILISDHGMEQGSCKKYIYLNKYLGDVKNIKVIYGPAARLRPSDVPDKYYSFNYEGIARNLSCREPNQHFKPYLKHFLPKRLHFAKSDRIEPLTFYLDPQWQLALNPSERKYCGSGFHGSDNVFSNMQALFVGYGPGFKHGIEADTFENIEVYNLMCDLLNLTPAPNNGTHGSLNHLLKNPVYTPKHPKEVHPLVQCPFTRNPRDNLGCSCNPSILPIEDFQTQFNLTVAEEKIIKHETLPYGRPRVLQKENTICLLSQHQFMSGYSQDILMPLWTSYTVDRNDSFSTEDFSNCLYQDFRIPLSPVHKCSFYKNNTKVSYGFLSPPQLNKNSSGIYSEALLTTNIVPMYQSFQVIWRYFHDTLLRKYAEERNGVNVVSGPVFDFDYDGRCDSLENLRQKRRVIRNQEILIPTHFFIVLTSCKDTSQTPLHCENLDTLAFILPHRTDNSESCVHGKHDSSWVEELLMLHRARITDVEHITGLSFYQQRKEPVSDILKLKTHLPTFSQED
In words: ENPP1 assay with ATP substrate (Transcreener AMP2/GMP2 TR-FRET). It counts as biochemical. Particulars: 1 hour at room temperature. The text has this: Example B1: ENPP1 Assay with ATP Substrate
Ectonucleotide pyrophosphatase/phosphodiesterase 1 (ENPP1) hydrolyzes ATP, breaking it down into 5′-AMP and pyrophosphate. The 5′-AMP formed from the reaction is detected by Transcreener® AMP2/GMP2 TR-FRET Assay (Bellbrook), containing AMP-tracer (HiLyte 647) and anti-AMP Terbium (Tb) donor. 5′-AMP generated in the reaction competes with AMP-tracer for binding with Anti-AMP Tb donor, and decreases TR-FRET signal.
Different concentrations of ENPP1 inhibitors are added to dry assay plate, followed by 2 μl 300 nM ATP. The reaction is initiated with the addition of 2 μl 8.5 μM human ENPP1 (generated by SBP Protein group). The assay reaction mixture contains a buffer of 50 mM Tris, pH 7.5, 1 mM TCEP, 2 mM MgCl2, 0.005% Tween 20, and 1% DMSO. The reaction is stopped after 1 hour at room temperature by adding 2 μL of 2 nM AMP-tracer and 2 μl of 2 nM Anti-AMP Tb donor in the 50 mM Tris, pH 7.5, buffer containing 20 mM EDTA and 0.1% Prionex. After 2 hour additional incubation at room temperature, the generated signal is measured using BMG Lab PHERASTAR instrument. 100% activity control samples (containing enzyme, substrate, buffer: MAX) and no enzyme control samples (containing substrate and buffer: MIN) are utilized to calculate percent inhibition (%) for each compound concentration well (COMPOUND) as follows.
The IC50 values are determined by fitting the inhibition curves with 2-parameter variable slope model in Graphpad Prism software using percent inhibition vs compound concentration data: […]
On the technique in general: TR-FRET usually uses a lanthanide donor and a delayed reading to cut background.

For `c1ccc(-c2csc3nc(-c4ccccn4)nc(NCc4ccncc4)c23)cc1` [Example 1, 5-Phenyl-2-(pyridin-2-yl)-N-(pyridin-4-ylmethyl)thieno[2,3-d]pyrimidin-4-amine], the IC50 in assay [1] was > 20 µM; in assay [2] it was 0.1 to 1 µM.

As for `c1ccc(-c2csc3nc(-c4ccccn4)nc(NCc4cccnc4)c23)cc1` [Example 1.1, 5-Phenyl-2-(pyridin-2-yl)-N-(pyridin-3-ylmethyl)thieno[2,3-d]pyrimidin-4-amine], the IC50 in assay [1] is > 20 µM; in assay [2], 1 to 20 µM.

Consider `COc1ccc(CNc2nc(-c3ccccn3)nc3scc(-c4ccccc4)c23)cc1` [Example 1.3, N-(4-Methoxybenzyl)-5-phenyl-2-(pyridin-2-yl)thieno[2,3-d]pyrimidin-4-amine], for which the IC50 in assay [1] and in assay [2] was > 20 µM in each case.

For the compound `Fc1ccc(CNc2nc(-c3ccccn3)nc3scc(-c4ccccc4)c23)cc1` [Example 1.4, N-(4-Fluorobenzyl)-5-phenyl-2-(pyridin-2-yl)thieno[2,3-d]pyrimidin-4-amine], the IC50 in assay [1] and in assay [2] was > 20 µM in each case.

Turning to `c1ccc(CNc2nc(-c3ccccn3)nc3scc(-c4ccccc4)c23)cc1` [Example 1.5, N-Benzyl-5-phenyl-2-(pyridin-2-yl)thieno[2,3-d]pyrimidin-4-amine], the IC50 in assay [1] and in assay [2] was > 20 µM throughout.

As for `NS(=O)(=O)c1ccc(CNc2nc(-c3ccccn3)nc3scc(-c4ccccc4)c23)cc1` [Example 1.6, 4-(((5-Phenyl-2-(pyridin-2-yl)thieno[2,3-d]pyrimidin-4-yl)amino)methyl)benzenesulfonamide], the IC50 in assay [1] and in assay [2] was < 0.1 µM in each case.

For the compound `Cc1ccc(CNc2nc(-c3ccccn3)nc3scc(-c4ccccc4)c23)cc1` [Example 1.7, (4-Methyl-benzyl)-(5-phenyl-2-pyridin-2-yl-thieno[2,3-d]pyrimidin-4-yl)-amine], the IC50 in assay [1] and in assay [2] was > 20 µM throughout.

As for `Fc1ccccc1CNc1nc(-c2ccccn2)nc2scc(-c3ccccc3)c12` [Example 1.8, (2-Fluoro-benzyl)-(5-phenyl-2-pyridin-2-yl-thieno[2,3-d]pyrimidin-4-yl)-amine], the IC50 in assay [1] and in assay [2] was > 20 µM throughout.

Regarding `Fc1cccc(CNc2nc(-c3ccccn3)nc3scc(-c4ccccc4)c23)c1` [Example 1.9, (3-Fluoro-benzyl)-(5-phenyl-2-pyridin-2-yl-thieno[2,3-d]pyrimidin-4-yl)-amine], the IC50 in assay [1] and in assay [2] was > 20 µM in each case.

Take `Clc1ccc(CNc2nc(-c3ccccn3)nc3scc(-c4ccccc4)c23)cc1` [Example 1.10, (4-Chloro-benzyl)-(5-phenyl-2-pyridin-2-yl-thieno[2,3-d]pyrimidin-4-yl)-amine]: the IC50 in assay [1] and in assay [2] was > 20 µM each time.

As to `N#Cc1ccc(CNc2nc(-c3ccccn3)nc3scc(-c4ccccc4)c23)cc1` [Example 1.11, 4-[(5-Phenyl-2-pyridin-2-yl-thieno[2,3-d]pyrimidin-4-ylamino)-methyl]-benzonitrile], the IC50 in assay [1] and in assay [2] was > 20 µM throughout.

`Cc1csc2c(N3CCC(NC(=O)C4CC4c4ccccc4)CC3)ncnc12` (stereo not shown) [Example 3.79, N-(1-(7-Methylthieno[3,2-d]pyrimidin-4-yl)piperidin-4-yl)-2-phenylcyclopropanecarboxamide] gave an IC50 in assay [2] of 1 to 20 µM.

`Cc1csc2c(N3CCC(NCC4CC4c4ccncc4)CC3)nc(Cl)nc12` (stereo not shown) [Example 3.80, 1-(2-Chloro-7-methylthieno[3,2-d]pyrimidin-4-yl)-N-((2-(pyridin-4-yl)cyclopropyl)methyl)piperidin-4-amine]: in assay [2], the IC50 was 1 to 20 µM.

Regarding `Cc1csc2c(N3CCC(NCC4CC4c4ccncc4)CC3)ncnc12` (stereo not shown) [Example 3.81, 1-(7-Methylthieno[3,2-d]pyrimidin-4-yl)-N-((2-(pyridin-4-yl)cyclopropyl)methyl)piperidin-4-amine], in assay [2], the IC50 lay within 0.1 to 1 µM.
